According to patent publication US10076246B2, “Method and apparatus for noninvasive quantitative detection of fibrosis in normal and viable myocardium by MRI” (Oregon Health & Science University, priority 2007, dated 2018):

How the values were obtained:
[1] = Ex-vivo contrast-enhanced MRI (3 Tesla, T1 inversion recovery) measurement of gadodiamide partition coefficient / relative distribution volume in postmortem myocardium samples; format: in vitro ADME, human; details: 24 hours incubation in ~3 mM gadodiamide-saline solution
Experimental: As an example of the above-described methodology, eight samples of human myocardium were obtained postmortem and a fast spin-echo sequence (3 Tesla) with non-slice selective inversion pulse performed before and after immersion in a gadodiamide saline solution for determination of the gadodiamide partition coefficient. T1 values were calculated from the inversion recovery signal curves. The same samples were fixed in formalin, and the collagen volume fraction was determined by the picrosirius red method using a semi-automated, polarized, digital microscopy system. […] Moreover, there was a significant positive correlation between the two methods, across all three histological categories of myocardial fibrosis (r=0.73; p=0.017). Thus, these findings indicate an expanded potential for contrast enhanced MRI as a novel, non-invasive alternative to histological evaluation, for the quantification of both interstitial and replacement myocardial fibrosis.
In accordance with an exemplary embodiment as outlined briefly above, eight samples of myocardium were obtained from deceased patients. Each sample of ventricular myocardium was 1 to 2 cm in thickness, and cut at the mid-level of the ventricular septum to include left and right ventricular free walls. All samples were stored at −80° C. until time of analysis.
A pre-contrast MRI was performed approximately 10-12 hours after thawing each sample. […] The longitudinal relaxation time T1 of myocardial tissue and saline was measured with a spin-echo MRI pulse sequence with non-slice-selective inversion pulse, and for 12-15 inversion delays (inversion times in the range from T1=50 to 2000 ms). […]
After the first MRI scan, the sample was incubated at 3-4° C. in a gadodiamide—saline solution for 24 hours (initial gadodiamide concentration in saline before immersion of tissue slice was ˜3 mM; saline R1 at 3 Tesla after 24 hours incubation: 3.9±0.3 s^−1). […] The effects of duration of thawing were also evaluated. […] Accordingly, these two sets of samples with different durations of thawing were analyzed separately. […]

[2] = at 37° C.; cited from earlier work

- mean gadodiamide distribution volume (with 95% confidence interval) ([1]; interstitial fibrosis myocardium): 0.43+/−0.22
- mean gadodiamide distribution volume (with 95% confidence interval) ([1]; normal myocardium): 0.17+/−0.05
- mean gadodiamide distribution volume (with 95% confidence interval) ([1]; replacement fibrosis myocardium): 0.46+/−0.05
Compound: CNC(=O)CN(CCN(CCN(CC(=O)[O-])CC(=O)NC)CC(=O)[O-])CC(=O)[O-].[Gd+3] [gadodiamide]
- osmolality [2]: 789 mOsmol/kg water
